Measurements reported in US20040161419A1, “Placental stem cells and uses thereof” (priority 2002, published 2004).

What was measured:
placental stem cells [1] = assay: Differentiation into cardiomyocytes (RT-PCR); format: cell-based, human; conditions: 1 mM, day 14 versus day 0, RT-PCR
Procedure: Placental stem cells (PSCs) were cultured in the presence of L-Ascorbic acid 2-phosphate (1 mM) for 14 days. Total RNA was extracted on day 0 and day 14 and used for RT-PCR analysis. Cardiomyocyte specific genes primers were designed specifically for cardiac transcription factor GATA-4, atrial myosin light chain type 2 (MLC-2A), ventricular myosin light chain type 2 (MLC-2V), human atrial natriuretic peptide (hANP), and cardiac troponin T (cTnT). The PCR reaction conditions were 45 cycles/57° C. annealing temperature. The PCR products were size fractioned by 2.5% agarose gel electrophoresis.

placental stem cells [2] = system: placental stem cells
Procedure: The cells were cultured for either 7-10 days or until the cultures grew to confluence. The cells were trypsinized and reseeded in 6 well plates. The cells were subjected to different culture conditions, having varying growth factors supplementing the DMEM or MEM based medium. […] Placental stem cells were cultured for an additional 14 days. At the end of 14 days, the cells were evaluated for the expression of human albumin, CYP3A4, A1AT, or C/EBP-alpha.

CYP1A1/2 = assay: EROD assay (ethoxyresorufin-o-deethylase); format: cell-based; conditions: prior exposure 50 uM; human hepatocytes and hepatocytes derived from PSCs
Procedure: Human hepatocytes were cultured using the conditions of Strom et al. Methods in Enzymology 272:388-401 (1996).
An EROD assay which measures the conversion of ethoxy-resorufin to hydroxyresorufin was used to detect expression of CYP1A1 or CYP1A2 in human hepatocytes and hepatocytes derived from placental stem cells (Kelley et al. J. Biomolecular Screening 5:249-253 (2000). CYP1A activity in these cells was induced by exposing the hepatocytes to beta-naphthoflavone (50 uM).

placental stem cells [3] = assay: Differentiation into pancreatic cells (RT-PCR); format: cell-based, human; conditions: on Matrigel, 14 days
Procedure: Placental stem cells were maintained in standard growth media for 7 days and then trypsinized and seeded on cultures previously coated with matrigel (MG), a commercially available form of basement membrane proteins. Cultures were coated with 20% (v/v; matrigel to media) or 100% matrigel with essentially identical results. […] After 10-14 days the cells were lysed and RNA was isolated, and reverse transcriptase-PCR analysis was conducted with PCR primers specific for Pax 6, PDX-1 Nkx2.2, insulin, glucagon and an internal control, beta-actin.

placental stem cells [4] = assay: Differentiation into neural cells; format: cell-based, human
Procedure: […] Immunohistochemical analysis of the expression of the different genes was conducted with antibodies specific to the human proteins.

O=C1O[C@H]([C@@H](O)CO)C(O)=C1OP(=O)(O)O [L-Ascorbic acid 2-phosphate]
expression of MLC-2A and MLC-2V genes (placental stem cells [1]): significantly up-regulated

hepatocyte growth factor (HGF): hepatocyte growth factor, media supplement
liver specific gene expression (albumin, CYP3A4, A1AT, C/EBP-alpha) (placental stem cells [2]): did not enhance liver specific gene expression

O=c1cc(-c2ccccc2)oc2ccc3ccccc3c12 [beta-naphthoflavone (BNF), beta-naphthoflavone]
effect on EROD activity (CYP1A1/2): induced

NC(=O)c1cccnc1 [nicotinamide]
expression of pancreatic markers (insulin, glucagon, PDX-1, Pax6, Nkx2.2) (placental stem cells [3]): express insulin and glucagon

CC1=C(/C=C/C(C)=C/C=C/C(C)=C/C(=O)O)C(C)(C)CCC1 [all trans retinoic acid, all-trans retinoic acid]
expression of GFAP, beta-tubulin III and CNP (placental stem cells [4]; immunofluorescence, FIG. 9A): express | expression of nestin and glutamic acid decarboxylase (GAD) (placental stem cells [4]; over 7 days of culture, FIG. 9B): increase

FGF 2: fibroblast growth factor 2, media supplement
liver specific gene expression (albumin, CYP3A4, A1AT, C/EBP-alpha) (placental stem cells [2]): did not enhance liver specific gene expression
